From US9593305B2, “Differentiation of pluripotent stem cells” (Janssen Biotech, Inc., priority 2008, dated 2017) come the findings set out here.

For one test, the system named is scid-beige mice. Briefly: Transplantation of differentiated cells under the kidney capsule, human C-peptide ELISA (Example 18). The conditions noted are these: 8-weeks post-transplant; cells treated in step 1 as named (compounds with GDF-8). Type of test: in vivo, mouse. How it is done: Five to six-week-old male scid-beige mice (C.B-Igh-1 b1 GbmsTac-Prkdc^scid-Lyst^bgN7) were purchased from Taconic Farms. Mice were housed in microisolator cages with free access to sterilized food and water. In preparation for surgery, mice were identified by ear tagging, their body weight was measured, and their blood glucose was determined using a hand held glucometer (LifeScan; One Touch). On the day of surgery, mice were anesthetized with a mixture of isolflurane and oxygen, and the surgical site was shaved with small animal clippers. Mice were dosed with 0.1 mg·kg Buprenex subcutaneously pre-operatively. The surgical site was prepared with successive washes of 70% isopropyl alcohol, 10% povidone-iodide, and 70% isopropyl alcohol, and a left lateral incision was made through the skin and muscle layers. […]
Following transplantation, mice were weighed once per week and blood glucose was measured twice per week. […] Human C-peptide levels were determined using the Mercodia/ALPCO Diagnotics Ultrasensitive C-peptide ELISA according to the manufacturer's instructions.
ELISA results for human C-peptide are shown in FIG. 23 for mice transplanted with cells from each of the respective treatment groups. No circulating human C-peptide was detected at four weeks post-transplant for any mice receiving cells from any of the treatment groups.
A general note: In an ELISA, binding on a coated surface is turned into a signal by an enzyme label.

In test [1] the test system is H1 human embryonic stem cells. Put plainly: Step-wise differentiation, high content analysis of cell number, insulin, glucagon after step 5 (Example 17). Particulars: GDF-8 in step 1, alone or with a compound. Type of test: cell-based. How it is done: Step 5 of the differentiation protocol was carried out over seven days in DMEM-high glucose with 0.1% Albumax, 0.5× Insulin-Transferrin-Selenium, and 1 μM Alk 5 inhibitor. Medium in each well was aspirated and replaced with a fresh aliquot (0.5 ml) on all days. At the conclusion of the fifth step of differentiation, cells from some wells were harvested for analysis by RT-PCR to measure markers of differentiation. Other culture wells were subjected to high content image analysis for protein expression levels of insulin and glucagon.
At the conclusion of culture, assay plates were washed once with PBS (Invitrogen; Cat #14190), fixed with 4% paraformaldehyde (Alexis Biochemical; Cat #ALX-350-011) at room temperature for 20 minutes, then washed three times with PBS and permeabilized with 0.5% Triton X-100 (Sigma; Cat #T8760-2) for 20 minutes at room temperature. […]
Imaging was performed using an IN Cell Analyzer 1000 (GE Healthcare) utilizing the 51008bs dichroic for cells stained with Hoechst 33342 and Alexa Fluor 488. […] Segmentation for the nuclei was determined based on gray-scale levels (baseline range 100-300) and nuclear size. Averages and standard deviations were calculated for each replicate data set. Total protein expression was reported as total intensity or integrated intensity, defined as total fluorescence of the cell multiplied by the area of the cell. […]

Regarding `C=CCN1CC(=O)NCCCc2cncc(c2)-c2ncnc(n2)Nc2cccc(c2)C1` [Compound 40, 14-Prop-2-en-1-yl-3,5,7,14,17,23,27-heptaazatetracyclo[19.3.1.1˜2.6˜0.1˜8,12˜]heptacosa-1(25), 2(27), 3,5,8(26), 9,11,21,23-nonaen-16-one], the “mice with detectable C-peptide” value in the test on scid-beige mice is “one of three mice”.

For “GDF-8: growth factor GDF-8, also known as myostatin, member of the TGF-β family”, in test [1], the “insulin and glucagon expression at the conclusion of step five” value is “resulted in insulin and glucagon expression”.
